# Laboratory results published in patent publication US9481667B2, “Salts and solid forms of isoquinolinones and composition comprising and methods of using the same” (Infinity Pharmaceuticals, Inc., priority 2013, dated 2016).
# Structures can show the parent of a compound that is named as a salt.
# Legend:
# Format in all cases: physicochemical
# [1] = Storage at 40° C./75% RH (solid-state stability); settings: for Stability on storage at 40° C./75% RH: 1 week, solid form by XRPD
# Experimental: The crystalline solids were filtered, dried at ambient conditions, and stored at 40° C./75% RH for 1 week and analyzed by ^1H NMR/IC.
# Samples from the screen using amorphous free base Compound 1 were analysed by ^1H-NMR and DSC, and re-analysis by XRPD was also carried out after drying at 50° C./vacuum and storage at 40° C./75% RH (the same sample was dried and stored at elevated humidity).
# [2] = Storage at 25° C./93% RH (solid-state stability); settings: for Stability on storage at 25° C./93% RH: 1 week, solid form by XRPD
# [3] = Gravimetric vapour sorption (GVS)
# Experimental: Sorption isotherms were obtained using a Hiden IGASorp moisture sorption analyser, controlled by CFRSorp software. The sample temperature was maintained at 25° C. by a Huber re-circulating water bath. The humidity was controlled by mixing streams of dry and wet nitrogen, with a total flow rate of 250 ml/min. The relative humidity (RH) was measured by a calibrated Vaisala RH probe (dynamic range of 0-95% RH), located near the sample. The weight change, (mass relaxation) of the sample as a function of % RH was constantly monitored by the microbalance (accuracy ±0.001 mg). Typically 10-20 mg of sample was placed in a tared mesh stainless steel basket under ambient conditions. The sample was loaded and unloaded at 40% RH and 25° C. (typical room conditions). A moisture sorption isotherm was performed as outlined below (2 scans giving 1 complete cycle). The standard isotherm was performed at 25° C. at 10% RH intervals over a 0-90% RH range.
# The software uses a least squares minimisation procedure together with a model of the mass relaxation, to predict an asymptotic value. The measured mass relaxation value must be within 5% of that predicted by the software, before the next % RH value is selected. The minimum equilibration time was set to 1 hour and the maximum to 4 hours. The sample was recovered after completion of the isotherm and re-analysed by XRPD.
# [4] = Stability on standing at ambient/room conditions
# Description: The bis-sulfuric acid salt is difficult to crystallise in an anhydrous environment. The experiment in methanol produced a clear solution, which then became an oil after solvent evaporation.
# [5] = Thermodynamic aqueous solubility; settings: aqueous, thermodynamic from solid
# [6] = Free base solubility assessment in solvents
# Experimental: Approximately 11 mg (0.022 mmol) portions of the free base Form 1 of Compound 1 (i.e., the compound of formula (I)) were weighed into 2 ml screw-topped HPLC vials. One of 15 solvents was added to each vial in a number of aliquots (up to 100 volumes), with shaking and if necessary with heating to 40° C., in an attempt to achieve dissolution.
# [7] = listed as Compound 1 Free Base Form 1
# [8] = listed as amorphous free base Compound 1
structure (smiles),measurement,setting,value
"COc1cc(-c2cccc3cc([C@H](C)Nc4nc(N)ncc4C#N)n(-c4ccccc4)c(=O)c23)ccn1 [Form 1 of the 1,2-ethanedisulfonic acid salt of Compound 1] [(S)-2-amino-4-((1-(8-(2-methoxypyridin-4-yl)-1-oxo-2-phenyl-1,2-dihydroisoquinolin-3-yl)ethyl)amino)pyrimidine-5-carbonitrile]",Storage 40° C./75% RH for 1 week: HPLC Purity,[1]; 0.5 g scale-up salts,HPLC Purity: Unchanged
same,Storage 40° C./75% RH for 1 week: XRPD (D8),[1]; 0.5 g scale-up salts,XRPD (D8): Unchanged
same,Stability on storage at 40° C./75% RH,[1],stable
same,Stability on storage at 40° C./75% RH,"[1]; listed as mono-1,2-ethanedisulfonic acid salt",stable
same,Storage 25° C./93% RH for 1 week: HPLC Purity,[2]; 0.5 g scale-up salts,HPLC Purity: Unchanged
same,Storage 25° C./93% RH for 1 week: XRPD (D8),[2]; 0.5 g scale-up salts,XRPD (D8): Unchanged
same,XRPD post GVS (C2),[3]; 0.5 g scale-up salts,Unchanged
same,GVS Single cycle,"[3]; hygroscopicity, 25° C., 0-90% RH",Moderately hygroscopic
CC(=O)O.COc1cc(-c2cccc3cc([C@H](C)Nc4nc(N)ncc4C#N)n(-c4ccccc4)c(=O)c23)ccn1.COc1cc(-c2cccc3cc([C@H](C)Nc4nc(N)ncc4C#N)n(-c4ccccc4)c(=O)c23)ccn1 [Batch 2 of Form 6],Stability at 40° C./75% RH,[1]; after 1 week,Very slight changes
same,Stability at 25° C./93% RH,[2]; after 1 week,Very slight changes
"COc1cc(-c2cccc3cc([C@H](C)Nc4nc(N)ncc4C#N)n(-c4ccccc4)c(=O)c23)ccn1 [(S)-2-amino-4-((1-(8-(2-methoxypyridin-4-yl)-1-oxo-2-phenyl-1,2-dihydroisoquinolin-3-yl)ethyl)amino)pyrimidine-5-carbonitrile]",Crystallinity after standing,"[4]; RT, 24 hours",decreases
same,Stability at ambient conditions,[4]; converts to Form 1 by hydration,unstable
same,solubility thermodynamic,"[5]; pH 1.9, water, 0.5 g scale-up salts, pH of solution reported separately",1900 µg/mL
"COc1cc(-c2cccc3cc([C@H](C)Nc4nc(N)ncc4C#N)n(-c4ccccc4)c(=O)c23)ccn1 [Form 1 of the free base of Compound 1, (S)-2-amino-4-((1-(8-(2-methoxypyridin-4-yl)-1-oxo-2-phenyl-1,2-dihydroisoquinolin-3-yl)ethyl)amino)pyrimidine-5-carbonitrile]",Stability on storage at 40° C./75% RH,[1],stable
same,Stability on storage at 40° C./75% RH,[1]; [7],No changes in form after 1 week
same,Stability on storage at 40° C./75% RH,[1]; listed as Free base Form 1,did not show any changes
same,Stability on storage at 25° C./93% RH,[2],converts to Form 3
same,Stability on storage at 25° C./93% RH,[2]; [7],Conversion to Form 3 (FIG. 31)
same,Stability on storage at 25° C./93% RH,[2]; listed as Free base Form 1,conversion to Form 3
same,solubility thermodynamic,"[5]; water, at pH 6.85",4 µg/mL
same,RH range in which hydration to Form 3 occurs,[3],80-90 % RH
same,GVS: form change with humidity,"[3]; above 80% RH, listed as Free base Form 1","hydrates to a higher hydrate above 80% RH, but this re-converts to Form 1 on desorption"
same,GVS: moisture on loading,"[3]; loaded at 40% RH, 25° C., listed as Compound 1 Free Base Form 1",0.7 % w/w
"COc1cc(-c2cccc3cc([C@H](C)Nc4nc(N)ncc4C#N)n(-c4ccccc4)c(=O)c23)ccn1 [amorphous free base of Compound 1, (S)-2-amino-4-((1-(8-(2-methoxypyridin-4-yl)-1-oxo-2-phenyl-1,2-dihydroisoquinolin-3-yl)ethyl)amino)pyrimidine-5-carbonitrile]",Stability on storage at 40° C./75% RH,[1]; [8],No changes after 1 week
same,Storage at elevated humidity,"[1]; elevated humidity conditions, solid form",No crystallisation
same,Stability on storage at 25° C./93% RH,[2]; [8],No changes after 1 week
"COc1cc(-c2cccc3cc([C@H](C)Nc4nc(N)ncc4C#N)n(-c4ccccc4)c(=O)c23)ccn1 [Compound 1, (S)-2-amino-4-((1-(8-(2-methoxypyridin-4-yl)-1-oxo-2-phenyl-1,2-dihydroisoquinolin-3-yl)ethyl)amino)pyrimidine-5-carbonitrile]",solvent volumes to dissolve,"[6]; 2-MeTHF, free base Form 1, shaking, if necessary heating to 40° C.",50 vol.
same,solvent volumes to dissolve,"[6]; DMSO, free base Form 1, shaking, if necessary heating to 40° C.",5 vol.
same,solvent volumes to dissolve,"[6]; EtOAC, free base Form 1, did not dissolve in up to 100 vol.",> 100 vol.
same,solvent volumes to dissolve,"[6]; EtOH/H2O, free base Form 1, did not dissolve in up to 100 vol.",> 100 vol.
same,solvent volumes to dissolve,"[6]; EtOH, free base Form 1, did not dissolve in up to 100 vol.",> 100 vol.
same,solvent volumes to dissolve,"[6]; H2O, free base Form 1, did not dissolve in up to 100 vol.",> 100 vol.
same,solvent volumes to dissolve,"[6]; MIBK, free base Form 1, shaking, if necessary heating to 40° C.",40 vol.
same,solvent volumes to dissolve,"[6]; MeOH/anisole (50/50 v/v), free base Form 1, shaking, if necessary heating to 40° C.",10 vol.
same,solvent volumes to dissolve,"[6]; MeOH, free base Form 1, shaking, if necessary heating to 40° C.",75 vol.
same,solvent volumes to dissolve,"[6]; TBME, free base Form 1, did not dissolve in up to 100 vol.",> 100 vol.
same,solvent volumes to dissolve,"[6]; THF, free base Form 1, shaking, if necessary heating to 40° C.",40 vol.
same,solvent volumes to dissolve,"[6]; acetone, free base Form 1, did not dissolve in up to 100 vol.",> 100 vol.
same,solvent volumes to dissolve,"[6]; acetonitrile, free base Form 1, did not dissolve in up to 100 vol.",> 100 vol.
same,solvent volumes to dissolve,"[6]; anisole, free base Form 1, did not dissolve in up to 100 vol.",> 100 vol.
same,solvent volumes to dissolve,"[6]; chloroform, free base Form 1, shaking, if necessary heating to 40° C.",40 vol.
